Results reported in ChEMBL document CHEMBL1201862, “PubChem BioAssay data set” (2004).
Activity calls are given as the source filed them.

Legend:
[1] = target: T1, Delta-type opioid receptor (Homo sapiens, UniProt P41143); assay: HTS Image-Based Screen for Antagonists of the DOR Receptor. [Related pubchem assays (depositor defined):AID1777, AID1785, AID1786, AID2133]; type: functional
Mu-type opioid receptor = Mu-type opioid receptor (Homo sapiens, UniProt P35372); assay: HTS Image-Based Screen for Agonists of the MOR Receptor. [Related pubchem assays (depositor defined):AID1777, AID1785, AID1786, AID2133]; type: functional;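 also: imaging of beta-arrestin GFP recruitment into spots after receptor activation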
[2] = target: T1, Delta-type opioid receptor; assay: HTS Image-Based Screen for Agonists of the DOR Receptor. [Related pubchem assays (depositor defined):AID1777, AID1786, AID2133]; type: functional
[3] = target: T2, Kappa-type opioid receptor (Homo sapiens, UniProt P41145); type: functional
Beta-galactosidase = Beta-galactosidase (Escherichia coli, UniProt Q8VNN2); type: functional
[4] = target: T2, Kappa-type opioid receptor; type: functional; remark: listed apart in the source
[5] = target: T3, Long-chain-fatty-acid--AMP ligase FadD28 (Mycobacterium tuberculosis, UniProt P9WQ59); assay: Fluorescence polarization aasay to screen for inhibitors that compete for the binding of FadD28 to a bisubstrate Measured in Biochemical System Using Plate Reader - 2147-01_Inhibitor_Dose_CherryPick_Activity.; type: functional, Mycobacterium tuberculosis H37Rv
T3 sequence (P9WQ59 whole entry): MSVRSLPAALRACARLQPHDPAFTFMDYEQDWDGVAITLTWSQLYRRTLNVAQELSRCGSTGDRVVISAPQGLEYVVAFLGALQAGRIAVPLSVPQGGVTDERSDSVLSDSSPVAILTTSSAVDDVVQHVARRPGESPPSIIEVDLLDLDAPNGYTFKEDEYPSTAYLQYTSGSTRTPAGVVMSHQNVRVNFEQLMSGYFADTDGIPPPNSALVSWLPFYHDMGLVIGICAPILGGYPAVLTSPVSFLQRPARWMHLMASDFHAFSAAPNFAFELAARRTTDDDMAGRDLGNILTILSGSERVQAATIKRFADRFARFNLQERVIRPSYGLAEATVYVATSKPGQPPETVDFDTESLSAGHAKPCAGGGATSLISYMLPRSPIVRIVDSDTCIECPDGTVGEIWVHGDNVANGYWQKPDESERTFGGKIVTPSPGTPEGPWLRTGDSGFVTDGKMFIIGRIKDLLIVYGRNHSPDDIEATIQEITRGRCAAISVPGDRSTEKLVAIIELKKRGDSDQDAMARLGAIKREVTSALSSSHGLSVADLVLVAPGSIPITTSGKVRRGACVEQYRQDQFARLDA

Hexokinase HKDC1 = target: T4, Hexokinase HKDC1 (Homo sapiens, UniProt Q2TB90); assay: inhibition of HKDC1 glucose phosphorylation – biochemical, W721R variant, dose response (AID 504729); type: functional
T4 sequence (Q2TB90 whole entry): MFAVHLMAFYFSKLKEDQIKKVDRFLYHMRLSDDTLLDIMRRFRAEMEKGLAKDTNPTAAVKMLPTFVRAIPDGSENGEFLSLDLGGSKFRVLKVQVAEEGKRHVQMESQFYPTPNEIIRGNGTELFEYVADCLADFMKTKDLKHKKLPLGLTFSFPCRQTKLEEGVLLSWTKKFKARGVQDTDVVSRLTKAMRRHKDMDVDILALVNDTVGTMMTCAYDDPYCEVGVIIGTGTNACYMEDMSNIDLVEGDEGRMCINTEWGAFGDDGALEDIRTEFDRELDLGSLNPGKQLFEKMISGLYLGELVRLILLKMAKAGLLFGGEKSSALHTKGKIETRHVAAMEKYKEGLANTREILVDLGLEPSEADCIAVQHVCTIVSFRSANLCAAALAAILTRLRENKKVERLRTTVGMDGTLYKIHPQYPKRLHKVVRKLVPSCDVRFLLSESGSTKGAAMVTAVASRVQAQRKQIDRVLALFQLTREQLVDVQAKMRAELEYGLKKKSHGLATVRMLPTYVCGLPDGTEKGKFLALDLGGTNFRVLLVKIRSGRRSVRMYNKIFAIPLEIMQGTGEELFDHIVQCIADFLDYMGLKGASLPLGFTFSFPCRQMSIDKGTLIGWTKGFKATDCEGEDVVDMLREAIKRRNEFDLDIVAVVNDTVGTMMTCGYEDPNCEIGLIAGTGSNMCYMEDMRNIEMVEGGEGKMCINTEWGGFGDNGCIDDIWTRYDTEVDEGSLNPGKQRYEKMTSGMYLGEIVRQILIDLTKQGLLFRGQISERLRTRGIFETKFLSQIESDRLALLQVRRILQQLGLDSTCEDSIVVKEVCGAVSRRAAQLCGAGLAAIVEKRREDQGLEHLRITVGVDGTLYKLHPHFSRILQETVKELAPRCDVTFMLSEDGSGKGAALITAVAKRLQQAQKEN

[6] = target: G-protein coupled receptor 55 (Homo sapiens, UniProt Q9Y2T6); assay: inhibition of LPI-stimulated GPR55 beta-arrestin translocation – imaging, U2OS, beta-arrestin-GFP, LPI agonist, primary screen (AID 2013); type: functional;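 also: antagonist potency measured as reduced agonist-driven arrestin aggregation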
[7] = target: T5, E3 ubiquitin-protein ligase XIAP (Homo sapiens, UniProt P98170); assay: Counter Screen using XIAP-Bir3 for Chemical Antagonists of Bir1/2 domains of IAP-family anti-apoptotic proteins. [Related pubchem assays (depositor defined):AID1018, AID1449, AID1514, AID1638, AID1749, AID1750, AID488957, AID488963]
[8] = target: T5, E3 ubiquitin-protein ligase XIAP; assay: small molecules displacing peptide from XIAP – biochemical, IAP family, fluorescence polarization (AID 1018); type: functional
[9] = target: Sphingosine 1-phosphate receptor 1 (Homo sapiens, UniProt P21453); assay: Fluorescence-based counterscreen assay for S1P4 agonists: Cell-based dose response high throughput screening assay to identify agonists of the Sphingosine 1-Phosphate Receptor 1 (S1P1). [Related pubchem assays (depositor defined):AID1509, AID1523, AID1801, AID463107, AID463118, AID463119, AID463122, AID463123, AID463129, AID463225, AID504400, AID504460]; type: functional
[10] = target: Sphingosine 1-phosphate receptor 4 (Homo sapiens, UniProt O95977); assay: Fluorescence dose response cell-based high throughput screening assay for agonists of the Sphingosine 1-Phosphate Receptor 4 (S1P4). [Related pubchem assays: 1509 (Primary screen.), 1523 (Confirmation screen in triplicates.)]; type: functional
Sphingosine 1-phosphate receptor 4, sequence (O95977 whole entry): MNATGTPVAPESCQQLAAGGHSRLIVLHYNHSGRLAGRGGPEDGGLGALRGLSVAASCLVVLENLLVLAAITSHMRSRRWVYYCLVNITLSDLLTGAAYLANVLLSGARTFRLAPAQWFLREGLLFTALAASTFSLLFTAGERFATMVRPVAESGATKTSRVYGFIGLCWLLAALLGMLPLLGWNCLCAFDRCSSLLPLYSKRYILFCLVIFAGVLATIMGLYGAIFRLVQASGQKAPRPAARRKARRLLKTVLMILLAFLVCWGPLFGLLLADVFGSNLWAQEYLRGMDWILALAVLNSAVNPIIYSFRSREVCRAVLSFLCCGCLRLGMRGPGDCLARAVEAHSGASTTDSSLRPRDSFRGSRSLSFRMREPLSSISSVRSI

T2 sequence (P41145 whole entry): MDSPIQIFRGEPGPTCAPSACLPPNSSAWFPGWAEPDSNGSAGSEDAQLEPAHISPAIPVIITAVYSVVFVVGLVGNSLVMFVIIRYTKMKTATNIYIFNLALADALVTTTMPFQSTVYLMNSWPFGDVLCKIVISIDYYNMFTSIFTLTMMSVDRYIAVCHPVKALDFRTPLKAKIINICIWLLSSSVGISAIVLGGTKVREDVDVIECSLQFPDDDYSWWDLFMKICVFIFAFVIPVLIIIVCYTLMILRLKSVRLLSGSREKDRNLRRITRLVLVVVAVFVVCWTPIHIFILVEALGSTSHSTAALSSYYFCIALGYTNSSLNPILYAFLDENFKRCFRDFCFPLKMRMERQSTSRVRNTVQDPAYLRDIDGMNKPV
T1 sequence (P41143 whole entry): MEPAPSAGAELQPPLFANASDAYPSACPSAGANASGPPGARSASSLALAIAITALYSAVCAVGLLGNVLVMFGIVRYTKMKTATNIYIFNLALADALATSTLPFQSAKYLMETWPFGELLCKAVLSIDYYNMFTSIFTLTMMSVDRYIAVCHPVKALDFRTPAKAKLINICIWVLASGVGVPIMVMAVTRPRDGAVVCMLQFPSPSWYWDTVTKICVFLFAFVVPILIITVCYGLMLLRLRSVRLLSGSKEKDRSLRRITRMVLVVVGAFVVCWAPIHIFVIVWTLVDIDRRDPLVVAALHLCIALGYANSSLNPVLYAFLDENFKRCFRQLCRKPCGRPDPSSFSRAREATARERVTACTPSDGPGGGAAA
Mu-type opioid receptor, sequence (P35372 whole entry): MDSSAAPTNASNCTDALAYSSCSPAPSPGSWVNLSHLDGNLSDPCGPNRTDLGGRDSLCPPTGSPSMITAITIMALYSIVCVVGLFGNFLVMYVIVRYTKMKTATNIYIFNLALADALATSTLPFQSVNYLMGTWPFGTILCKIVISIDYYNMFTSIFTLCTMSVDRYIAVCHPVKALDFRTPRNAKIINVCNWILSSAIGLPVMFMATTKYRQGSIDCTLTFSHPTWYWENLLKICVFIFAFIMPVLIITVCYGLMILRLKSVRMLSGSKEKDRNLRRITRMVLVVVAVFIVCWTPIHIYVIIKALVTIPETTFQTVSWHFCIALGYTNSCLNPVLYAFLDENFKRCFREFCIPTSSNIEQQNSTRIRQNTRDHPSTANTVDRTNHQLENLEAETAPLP
T5 sequence (P98170 whole entry): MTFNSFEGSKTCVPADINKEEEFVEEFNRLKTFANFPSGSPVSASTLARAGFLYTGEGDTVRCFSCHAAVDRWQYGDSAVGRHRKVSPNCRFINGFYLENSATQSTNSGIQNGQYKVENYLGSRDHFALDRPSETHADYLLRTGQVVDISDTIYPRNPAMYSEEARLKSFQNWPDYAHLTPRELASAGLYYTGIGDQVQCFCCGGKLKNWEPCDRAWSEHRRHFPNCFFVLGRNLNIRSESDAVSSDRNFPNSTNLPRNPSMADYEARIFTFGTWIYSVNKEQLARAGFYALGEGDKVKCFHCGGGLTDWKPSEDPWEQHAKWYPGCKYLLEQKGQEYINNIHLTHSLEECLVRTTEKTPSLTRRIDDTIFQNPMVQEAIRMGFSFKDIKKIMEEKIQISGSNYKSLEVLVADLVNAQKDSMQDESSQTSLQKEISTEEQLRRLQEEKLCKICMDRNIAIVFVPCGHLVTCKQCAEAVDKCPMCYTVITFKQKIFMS
Beta-galactosidase, sequence (Q8VNN2 whole entry): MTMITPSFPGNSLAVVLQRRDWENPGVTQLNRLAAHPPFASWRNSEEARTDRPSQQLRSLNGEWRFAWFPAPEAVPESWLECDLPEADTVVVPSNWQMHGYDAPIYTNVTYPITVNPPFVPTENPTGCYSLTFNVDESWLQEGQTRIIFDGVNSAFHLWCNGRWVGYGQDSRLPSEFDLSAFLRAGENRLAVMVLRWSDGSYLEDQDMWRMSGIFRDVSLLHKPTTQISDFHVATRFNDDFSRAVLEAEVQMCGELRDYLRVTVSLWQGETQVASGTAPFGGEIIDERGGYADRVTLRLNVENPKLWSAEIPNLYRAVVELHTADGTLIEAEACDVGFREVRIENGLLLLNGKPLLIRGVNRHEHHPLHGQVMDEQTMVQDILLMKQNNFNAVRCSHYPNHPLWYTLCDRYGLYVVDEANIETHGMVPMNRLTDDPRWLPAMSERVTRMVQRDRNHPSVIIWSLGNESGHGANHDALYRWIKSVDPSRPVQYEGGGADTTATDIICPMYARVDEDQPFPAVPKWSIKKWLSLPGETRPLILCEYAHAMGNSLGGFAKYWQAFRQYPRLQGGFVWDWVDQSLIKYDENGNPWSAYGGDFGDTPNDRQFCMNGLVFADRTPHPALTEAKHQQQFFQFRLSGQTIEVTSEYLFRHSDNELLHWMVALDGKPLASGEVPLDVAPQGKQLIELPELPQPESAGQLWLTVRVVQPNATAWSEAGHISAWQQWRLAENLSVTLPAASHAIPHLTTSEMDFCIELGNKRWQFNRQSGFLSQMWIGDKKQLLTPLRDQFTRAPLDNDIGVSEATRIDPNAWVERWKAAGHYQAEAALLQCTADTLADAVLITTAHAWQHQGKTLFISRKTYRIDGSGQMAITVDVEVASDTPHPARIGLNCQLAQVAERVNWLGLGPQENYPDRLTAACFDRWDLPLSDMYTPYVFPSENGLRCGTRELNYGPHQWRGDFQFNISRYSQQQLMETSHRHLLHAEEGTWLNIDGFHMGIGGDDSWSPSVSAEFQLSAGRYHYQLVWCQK
G-protein coupled receptor 55, sequence (Q9Y2T6 whole entry): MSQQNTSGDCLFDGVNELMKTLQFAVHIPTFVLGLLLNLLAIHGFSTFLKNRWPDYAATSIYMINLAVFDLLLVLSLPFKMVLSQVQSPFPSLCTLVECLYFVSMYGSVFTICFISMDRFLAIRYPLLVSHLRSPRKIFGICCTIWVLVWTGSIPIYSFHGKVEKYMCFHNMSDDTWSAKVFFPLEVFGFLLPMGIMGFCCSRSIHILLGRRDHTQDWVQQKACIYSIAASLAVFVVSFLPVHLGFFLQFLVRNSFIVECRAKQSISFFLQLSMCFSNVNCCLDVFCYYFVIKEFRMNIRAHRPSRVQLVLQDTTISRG
Sphingosine 1-phosphate receptor 1, sequence (P21453 whole entry): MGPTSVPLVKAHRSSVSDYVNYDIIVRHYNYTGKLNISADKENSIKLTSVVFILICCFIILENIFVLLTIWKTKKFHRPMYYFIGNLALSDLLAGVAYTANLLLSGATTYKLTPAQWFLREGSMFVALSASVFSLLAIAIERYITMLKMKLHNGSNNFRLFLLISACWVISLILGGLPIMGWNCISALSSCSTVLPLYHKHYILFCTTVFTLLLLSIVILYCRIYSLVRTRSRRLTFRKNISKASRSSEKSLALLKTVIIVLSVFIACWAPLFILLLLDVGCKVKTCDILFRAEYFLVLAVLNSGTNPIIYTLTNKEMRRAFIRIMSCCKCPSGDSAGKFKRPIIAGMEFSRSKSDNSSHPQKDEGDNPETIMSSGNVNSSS

What does the source list for `COc1cc(/C=C2\SC(=S)N(NC(=O)c3ccc(O)c(OC)c3)C2=O)ccc1O`?
IC50 [1]: > 32 µM (inactive); EC50 (Mu-type opioid receptor): > 32 µM (inactive); EC50 [2]: > 32 µM (inactive); IC50 [3]: 14.9 µM (active); EC50 (Beta-galactosidase): 10.3 µM (active); IC50 [4]: > 32 µM; AC50 [5]: > 100 µM (inactive)

Which IC50 [1] does the source give for `Cc1cccc(C(=O)NC2CC3CCCC(C2)N3Cc2ccccc2)c1` (stereo not given) here?
The IC50 was > 32 µM (inactive).

What about the EC50 (Mu-type opioid receptor) of the same molecule?
Its EC50 is > 32 µM (inactive).

And the EC50 [2]?
The EC50 was > 32 µM (inactive).

What about the IC50 [3] of the same molecule?
Its IC50 is 15.7 µM (active).

What about the EC50 (Beta-galactosidase) of the same molecule?
The EC50 was > 31.5 µM (inactive).

And the IC50 [4]?
The IC50 was 19.9 µM.

Which IC50 (Hexokinase HKDC1) does the source give for `CC(C)Nc1nnc(SCC(=O)Nc2ccc3c(c2)C(=O)c2ccccc2C3=O)s1` here?
Its IC50 is 29.7 µM (inactive).

`CCOc1ccc(NC(=O)c2ccccc2OCC(=O)c2ccccc2)cc1` was tested. Which IC50 [6] did it give?
Its IC50 is 1.74 µM (active).

For `Cc1cccc2c(N=NC(=O)c3ccc(NS(=O)(=O)c4cccs4)cc3)c(O)[nH]c12`, which IC50 (Hexokinase HKDC1) is on record?
Its IC50 is 15.5 µM (active).

For `CC1(C)CC(=O)N(CC(=O)O)c2ccccc2S1(=O)=O`, which IC50 [7] is on record?
The IC50 was > 100 µM (inactive).

What about the IC50 [8] of the same molecule?
Its IC50 is > 100 µM (not active).

For `Cn1c(SCC(=O)c2ccc3c(c2)OCO3)nnc1C1COc2ccccc2O1` (stereo not given), which EC50 [9] is on record?
The EC50 was > 49.8 µM (inactive).

What about the EC50 [10] of the same molecule?
The EC50 was > 49.8 µM (not active).
